Test results taken from US9212168B2 (priority 2011, dated 2015).

These compounds were tested on HCV genotype 1a replicon (assay: HCV genotype 1a replicon assay (NS3 protease activity readout)). Conditions: HCV genotype 1a replicon.
Format: cell-based, hepatitis C virus
Method in brief: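 EC50 values came from a 4-parameter robust fit of fluorescence (ex 340, em 509 nm) produced by NS3-specific protease in lysates, assayed with 15 μM FRET substrate for 20 min at 37° C, after 48 or 72 hours of compound exposure (0.5% DMSO) of Huh7.5-derived APC89 genotype 1a replicon cells.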
`COC(=O)N[C@H](C(=O)N1C[C@@H](C)C[C@H]1c1nc(-c2ccc(-c3ccc(C(=O)Nc4ccc(N5C[C@H](C)N(C(=O)C6CC6(F)F)C[C@H]5C)nc4)cc3OC(F)(F)F)cc2)c[nH]1)C(C)C` (some centres unmarked) [Example 4-22] was tested, and the “Genotype 1a” value was “C (C represents pEC50 between and 9 and about 10, (EC50 between 1 nM and 0.1 nM))”. `COC(=O)N[C@H](C(=O)N1C[C@H](O)C[C@H]1c1nc(-c2ccc(-c3ccc(NC(=O)c4ccc(N5CCN(C(=O)[C@]6(C)CCCN6C(=O)OC)C[C@H]5C)nc4)cc3)cc2)c[nH]1)C(C)C` [Example 26-1] was tested, and the “Genotype 1a” value was “A (A represents a pEC50 value between 6 and 8 (EC50 between 1 μM and 10 nM))”. In the case of `COC(=O)NC(C(=O)N1CC(C)CC1c1nc(-c2ccc(-c3cc(F)c(NC(=O)c4ccc(N5CCN(C(=O)C6CC6(F)Cl)CC5C)nc4)cc3OC(F)(F)F)cc2)c[nH]1)C(C)C` (mixture of isomers) [Example 1-60], the “Genotype 1a” value is reported as “D (D represents pEC50>10 (EC50<0.1 nM))”. `COC(=O)N[C@H](C(=O)N1C[C@@H](C)C[C@H]1c1nc(-c2ccc(-c3cc(F)c(NC(=O)c4ccc(N5CCN(C(=O)C6CC6)C[C@H]5C)nc4)cc3F)cc2)c[nH]1)C(C)C` [Example 1-83] was tested, and the “Genotype 1a” value was “C (C represents pEC50 between and 9 and about 10, (EC50 between 1 nM and 0.1 nM))”. In the case of `COC(=O)N[C@H](C(=O)N1C[C@@H](C)C[C@H]1c1nc(-c2ccc(-c3cc(Cl)c(NC(=O)c4ccc(N5CCN(C(=O)C6CC67CC7)C[C@H]5C)nc4)cc3OC(F)(F)F)cc2)c[nH]1)C(C)C` (some centres unmarked) [Example 1-87], the “Genotype 1a” value is reported as “D (D represents pEC50>10 (EC50<0.1 nM))”. In the case of `COC(=O)N[C@H](C(=O)N1C[C@@H](OC)C[C@H]1c1nc(-c2ccc(-c3cc(Cl)c(C(=O)Nc4ccc(N5CCN(C(=O)C(C)(C)CO)C[C@H]5C)nc4)cc3OC(F)(F)F)cc2)c[nH]1)C1CCOCC1` [Example 22-17], the “Genotype 1a” value is reported as “D (D represents pEC50>10 (EC50<0.1 nM))”. `COC(=O)NC(C(=O)N1CC(C)CC1c1nc(-c2ccc(-c3ccc(NC(=O)c4ccc(N5CCN(C(=O)C(C)(C)C)CC5C)nc4)cc3OC(F)(F)F)cc2)c[nH]1)C(C)(C)O` (centres unmarked) [Example 13-15] was tested, and the “Genotype 1a” value was “D (D represents pEC50>10 (EC50<0.1 nM))”. For `COC(=O)N[C@H](C(=O)N1C[C@@H](O)C[C@H]1c1nc(-c2ccc(-c3cc(Cl)c(NC(=O)c4ccc(N5CCN(C(=O)C(C)(C)C)C[C@H]5C)nc4)cc3OC(F)(F)F)cc2)c[nH]1)C1CCOCC1` [Example 26-10], the “Genotype 1a” value was “A (A represents a pEC50 value between 6 and 8 (EC50 between 1 μM and 10 nM))”. In the case of `COC(=O)N[C@H](C(=O)N1C[C@@H](C)C[C@H]1c1nc(-c2ccc(-c3cc(Cl)c(NC(=O)c4ccc(N5CCN(C(=O)CC6CC6)C[C@H]5C)nc4)cc3OC(F)(F)F)cc2)c[nH]1)C(C)C` [Example 1-98], the “Genotype 1a” value is reported as “C (C represents pEC50 between and 9 and about 10, (EC50 between 1 nM and 0.1 nM))”. With `COC(=O)NC(C(=O)N1CC(OC)CC1c1nc(-c2ccc(-c3ccc(NC(=O)c4ccc(N5CCN(C(=O)C(C)(C)C)CC5C)nc4)cc3OC(F)(F)F)cc2)c[nH]1)C(C)O` (centres unmarked) [Example 16-10] the “Genotype 1a” value was “C (C represents pEC50 between and 9 and about 10, (EC50 between 1 nM and 0.1 nM))”. With `COC(=O)N[C@H](C(=O)N1C[C@@H](N2CCOCC2)C[C@H]1c1nc(-c2ccc(-c3cc(Cl)c(NC(=O)c4ccc(N5CCN(C(=O)[C@H]6CC6(C)C)C[C@H]5C)nc4)cc3OC(F)(F)F)cc2)c[nH]1)C(C)C` [Example 15-4] the “Genotype 1a” value was “D (D represents pEC50>10 (EC50<0.1 nM))”. With `COC(=O)N[C@H](C(=O)N1C[C@@H](C)C[C@H]1c1nc(-c2ccc(-c3ccc(NC(=O)c4ccc(N5CCN(C(=O)C6CC6)C[C@H]5C)nc4)cc3C(F)(F)F)cc2)c[nH]1)C(C)C` [Example 1-65] the “Genotype 1a” value was “C (C represents pEC50 between and 9 and about 10, (EC50 between 1 nM and 0.1 nM))”. With `COC(=O)N[C@H](C(=O)N1C[C@@H](C)C[C@H]1c1nc(-c2ccc(-c3cc(F)c(NC(=O)c4ccc(N5CCN(C(=O)C6(C)CC6)C[C@H]5C)nc4)cc3OC(F)(F)F)cc2)c[nH]1)C(C)C` [Example 1-79] the “Genotype 1a” value was “C (C represents pEC50 between and 9 and about 10, (EC50 between 1 nM and 0.1 nM))”. With `COC(=O)N[C@H](C(=O)N1C[C@@H](C)C[C@H]1c1nc(-c2ccc(-c3cc(Cl)c(NC(=O)c4ccc(N5CCN(C(=O)[C@@H]6CCN6C(C)C)C[C@H]5C)nc4)cc3OC(F)(F)F)cc2)c[nH]1)C(C)C` [Example 1-85] the “Genotype 1a” value was “B (B represents pEC50 between 8 and 9 (EC50 between 1 and 10 nM))”. For `COC(=O)N[C@H](C(=O)N1C[C@@H](C)C[C@H]1c1nc(-c2ccc(-c3cc(F)c(NC(=O)c4ccc(N5CCN(C(=O)NN(C)C)C[C@H]5C)nc4)cc3OC(F)(F)F)cc2)c[nH]1)C(C)C` [Example 1-95], the “Genotype 1a” value was “C (C represents pEC50 between and 9 and about 10, (EC50 between 1 nM and 0.1 nM))”. With `COC(=O)N[C@H](C(=O)N1C[C@@H](C)C[C@H]1c1nc(-c2ccc(-c3ccc(C(=O)Nc4ccc(N5C[C@H](C)N(C(=O)NC6CC6)C[C@H]5C)nc4)cc3OC(F)(F)F)cc2)c[nH]1)C(C)C` [Example 4-24] the “Genotype 1a” value was “C (C represents pEC50 between and 9 and about 10, (EC50 between 1 nM and 0.1 nM))”. With `COC(=O)N[C@H](C(=O)N1C[C@@H](C)C[C@H]1c1nc(-c2ccc(-c3ccc(C(=O)Nc4ccc(N5C[C@H](C)N(C(=O)C(C)(C)C)C[C@H]5C)nc4)cc3OC(F)(F)F)cc2)c[nH]1)C(C)C` [Example 4-15] the “Genotype 1a” value was “D (D represents pEC50>10 (EC50<0.1 nM))”. `COC(=O)NC(C(=O)N1CC(C)CC1c1nc(-c2ccc(-c3ccc(NC(=O)c4ccc(N5CCN(C(=O)C(C)(C)C)CC5C)nc4)cc3OC(F)(F)F)cc2)c[nH]1)C(C)O` (centres unmarked) [Example 13-13] was tested, and the “Genotype 1a” value was “D (D represents pEC50>10 (EC50<0.1 nM))”. `COC(=O)N[C@H](C(=O)N1C[C@@H](OC)C[C@H]1c1nc(-c2ccc(-c3cc(Cl)c(NC(=O)c4ccc(N5C[C@H](C)N(C(=O)C6CC6)C[C@H]5C)nc4)cc3OC(F)(F)F)cc2)c[nH]1)C1CCOCC1` [Example 28-10] was tested, and the “Genotype 1a” value was “D (D represents pEC50>10 (EC50<0.1 nM))”. For `COC(=O)N[C@H](C(=O)N1C[C@@H](C)C[C@H]1c1nc(-c2ccc(-c3cc(Cl)c(NC(=O)c4ccc(N5CCN(C(=O)C(C)(C)CO)C(CO)C5)nc4)cc3OC(F)(F)F)cc2)c[nH]1)C(C)C` (some centres unmarked) [Example 14-3], the “Genotype 1a” value was “C (C represents pEC50 between and 9 and about 10, (EC50 between 1 nM and 0.1 nM))”.

Same assay, conditions: Hepatitis C virus, read-out: Genotype 1a, HCV genotype 1a replicon
Work on `COC(=O)N[C@H](C(=O)N1C[C@@H]([S+](C)[O-])C[C@H]1c1nc(-c2ccc(-c3ccc(C(=O)Nc4ccc(N5CCN(C(=O)C6CC6(C)C)C[C@H]5C)nc4)cc3OC(F)(F)F)cc2)c[nH]1)C(C)C` (some centres unmarked) [Example 6-18] yielded an EC50 of 0.1 to 1 nM. `COC(=O)N[C@H](C(=O)N1C[C@@H](C)C[C@H]1c1nc(-c2ccc(-c3cc(Cl)c(NC(=O)c4ccc(N5CCN(C(=O)C(C)(C)C)C[C@H]5C)nc4)c(Cl)c3OC(F)(F)F)cc2)c[nH]1)C(C)C` [Example 5-14] gave an EC50 of 0.1 to 1 nM. Compound `CCC(=O)NCC(C)(C)C(=O)N1CCN(c2ccc(C(=O)Nc3cc(OC(F)(F)F)c(-c4ccc(-c5c[nH]c([C@@H]6C[C@H](C)CN6C(=O)[C@@H](NC(=O)OC)C(C)C)n5)cc4)cc3Cl)cn2)[C@H](C)C1` [Example 12-41] has an EC50 of 0.1 to 1 nM. For `CCOCCC(C)(C)C(=O)N1CCN(c2ccc(C(=O)Nc3cc(OC(F)(F)F)c(-c4ccc(-c5c[nH]c([C@@H]6C[C@H](C)CN6C(=O)[C@@H](NC(=O)OC)C(C)C)n5)cc4)cc3Cl)cn2)[C@H](C)C1` [Example 12-3], the EC50 was under 0.1 nM. `COC(=O)N[C@H](C(=O)N1C[C@@H](C)C[C@H]1c1nc(-c2ccc(-c3cc(Cl)c(NC(=O)c4ccc(N5CCN(C(=O)C6(C)COC6)C[C@H]5C)nc4)cc3OC(F)(F)F)cc2)c[nH]1)C(C)C` [Example 12-48] was tested, and the EC50 was under 0.1 nM. In the case of `COC(=O)N[C@H](C(=O)N1C[C@@H](C)C[C@H]1c1nc(-c2ccc(-c3cc(Cl)c(NC(=O)c4ccc(N5CCN(C(=O)C(C)(C)CO)C[C@H]5C)nc4)cc3OC(F)(F)F)cc2)c(CO)[nH]1)C(C)C` [Example 5-13], the EC50 is reported as under 0.1 nM. With `COC(=O)NC(C(=O)N1C[C@@H](C)C[C@H]1c1nc(-c2ccc(-c3cc(Cl)c(NC(=O)c4ccc(N5CCN(C(=O)C(C)(C)C)C[C@H]5C)nc4)cc3OC(F)(F)F)cc2)c[nH]1)C1COC1` (some centres unmarked) [Example 13-44] the EC50 was 0.1 to 1 nM. In the case of `COC(=O)N[C@H](C(=O)N1C[C@@H](OC)C[C@H]1c1nc(-c2ccc(-c3cc(F)c(NC(=O)c4ccc(N5CCN(C(=O)C(C)(C)C)[C@@H](CO)C5)nc4)cc3OC(F)(F)F)cc2)c[nH]1)C1CCOCC1` [Example 5-16], the EC50 is reported as under 0.1 nM. Compound `COC(=O)N[C@H](C(=O)N1C[C@@H](C)C[C@H]1c1nc(-c2ccc(-c3cc(Cl)c(NC(=O)c4ccc(N5CCN(C(=O)C(C)(C)N6CCOCC6)C[C@H]5C)nc4)cc3OC(F)(F)F)cc2)c[nH]1)C(C)C` [Example 12-26] has an EC50 of under 0.1 nM. For `COC(=O)NC(C(=O)N1C[C@@H](C)C[C@H]1c1nc(-c2ccc(-c3c(F)cc(NC(=O)c4ccc(N5CCN(C(=O)C(C)(C)C)C[C@H]5C)nc4)cc3F)cc2)c[nH]1)C1CCS(=O)(=O)CC1` (some centres unmarked) [Example 21-2], the EC50 was 10 to 1000 nM. Compound `COC(=O)NCC(C)(C)C(=O)N1CCN(c2ccc(C(=O)Nc3cc(OC(F)(F)F)c(-c4ccc(-c5c[nH]c([C@@H]6C[C@H](C)CN6C(=O)[C@@H](NC(=O)OC)C(C)C)n5)cc4)cc3Cl)cn2)[C@H](C)C1` [Example 12-39] has an EC50 of under 0.1 nM. With `COC(=O)N[C@H](C(=O)N1C[C@@H](C)C[C@H]1c1nc(-c2ccc(-c3cc(Cl)c(NC(=O)c4ccc(N5CCN(C(=O)C6CC(N)C6)C[C@H]5C)nc4)cc3OC(F)(F)F)cc2)c[nH]1)C(C)C` (some centres unmarked) [Example 12-52] the EC50 was 0.1 to 1 nM. `COC(=O)N[C@H](C(=O)N1C[C@@H](C)C[C@H]1c1nc(-c2ccc(-c3cc(Cl)c(NC(=O)c4ccc(N5CCN(C(=O)C(C)(C)CNC(=O)C6CC6)C[C@H]5C)nc4)cc3OC(F)(F)F)cc2)c[nH]1)C(C)C` [Example 12-37] was tested, and the EC50 was 0.1 to 1 nM. Compound `COC(=O)CC(=O)NCC(C)(C)C(=O)N1CCN(c2ccc(C(=O)Nc3cc(OC(F)(F)F)c(-c4ccc(-c5c[nH]c([C@@H]6C[C@H](C)CN6C(=O)[C@@H](NC(=O)OC)C(C)C)n5)cc4)cc3Cl)cn2)[C@H](C)C1` [Example 12-33] has an EC50 of 0.1 to 1 nM. With `COC(=O)N[C@H](C(=O)N1C[C@@H](C)C[C@H]1c1nc(-c2ccc(-c3cc(Cl)c(NC(=O)c4ccc(N5CCN(C(=O)C6CCO6)C[C@H]5C)nc4)cc3OC(F)(F)F)cc2)c[nH]1)C(C)C` (some centres unmarked) [Example 12-49] the EC50 was under 0.1 nM.
